Measurements: patent publication US11932654B2, “Nimbolide analogs as anti-cancer agents and preparation thereof” (priority 2018, dated 2024)

How the values were obtained:
caspase-3 = assay: Caspase assay activity, caspase-3, Panc-1 cells; format: cell-based; details: fluorimetric assay, increasing concentrations
Description: (§1) Caspase assay activity: Caspase-3, caspase-8 and caspase-9 protease activities were determined using a commercial fluorescence assay kit according to the manufacturer's instructions, Briefly, pancreatic cancer cells were treated with different concentrations of IM-1372-Kn-13 for 24 h were re-suspended in 50 μL of chilled cell lysis buffer; cells were then incubated on ice for 10 min and centrifuged for 1 min in a micro-centrifuge (10,000 g). Then supernatants were transferred (cytosolic extract) to a fresh tube and protein concentration was assayed. Next, diluted 100 μg protein was added to 50 μL cell lysis buffer for each assay. Subsequently, 50 μL of 2× reaction buffer and 5 μL of the 4 mM Ac-DEVD AMC (caspase-3)/Ac-VETD-AMC (caspase-8)/[…] were added and incubated at 37° C. for 2 h (samples read at […] in a microtiter plate reader).

[1] = test system: DU-145 prostate cancer cell line; assay: In vitro anticancer activity, SRB assay, DU-145; format: cell-based; details: Homo sapiens, 48 h, NA = Not Active
Description: (§2) Cell culture: Human lung adenocarcinoma cell line (A549 cell line), pancreatic cancer cell line (Panc-1, Pan-02), prostate cancer cell line (DU145, PC3), Brest cancer cell line (MCF-7) was grown in DIEM (Dulbecco's modifications of eagle's medium with L-glutamine & 4.5 g/L glucose) supplemented with fetal bovine serum in a humidified atmosphere of a 5% CO2 at 37° C.
(§3) In vitro anticancer activity: Cells were harvested from exponential phase cultures by trypsinization, counted and plated in 96-well plate. Optimal seeding densities for different cell lines in each plate were 5000 cells per well. After 24 h cells were treated with \ the newly synthesized compound at a dose range of 0.1-100 μm final concentration. Thereafter, cells were allowed to grow for 48 h before determination of cell survival by the SRB assay. Then the cells were fixed with 10% cold trichloroacetic acid for 1 h at 4° C. After two washes with deionized water, fixed cells were stained with 50 μL of SRB solution (1% in acetic acid) for 30 min and subsequently washed twice with 1% acetic acid to remove unbound stain. The plates were left to dry at room temperature and bound stain was solubilized with 100 μL of 10 mM buffered Tris base for reading the […] at 540 nm.

[2] = test system: Pan-02 cells xenograft tumors; assay: Histopathological examination of tumors and organs of xenograft mice; format: in vivo, nude mice
Description: Establishment of Pancreatic cancer xenograft model: To establish tumor in mice, Pan-02 cells (7×10^6) were suspended in 1:1 RPMI medium mixed with matrigel and subcutaneously implanted on right flank of the each mice. The injection sites were examined daily for the appearance of tumors. On 10th day these animals were randomized and divided into 3 groups (6 mice in each group). Group I served as control group received 20% ethanol three times in a week. Test group animals in Group II and III received intratumoral injection of IM-1372-Kn-13 at 10 mg and 25 mg/kg body weight respectively three times in a week. All groups received 5 repeated doses in 12 days. Mice were weighed and tumor volumes were measured 3 times a week by Vernier caliper. Tumor volume in individual mice was calculated by the following formula. 0.5×L (W)^2, Where L is length, W is width of the tumor. The control group animals were euthanized when tumor volume is reached heavier to animal. One-week after completion of treatment period, the animals were sacrificed, and tumors were excised, fixed, and embedded in paraffin. At the end of treatment, blood samples were collected to perform clinical biochemistry.

[3] = test system: Pan-02 pancreatic cancer cell line; assay: In vitro anticancer activity, SRB assay, Pan-02; format: cell-based; details: Pan02, 48 h
Description: as §2, §3

caspase-9 = assay: Caspase assay activity, caspase-9, Panc-1 cells; format: cell-based; details: fluorimetric assay, increasing concentrations
Description: as §1

p27 = assay: Western blotting analysis on Panc-1 cell line, p27; format: cell-based; details: panc-1 cells, various concentrations, 24 h, Western blot
Description: Western blotting analysis of IM-1372-Kn-13 on Panc-1 cell line: The cells were lysed in RIPA buffer (50 mM-tris (PH-7.4), 150 Min-Nacl, 1%-NP-40, 0.1%-SDS, 0.5%-Sodium-deoxycholate, 1 mM EDTA, 5 mM NaF, 5 mM Na—O-vandate, 1 mM PMSF, Protease inhibitor cocktail. The lysates were cleared by centrifugation at […] and concentration of protein was estimated by bradford assay. For Western blot analysis, equivalent amount of protein was resolved in SDS-PAGE and then transferred to polyvinylidene difluoride ([…]) membrane. Ti avoid non specific binding of antibodies, the membranes were blocked using 3% BSA in TBS with 0.5% Tween (TBST) for 1 h at room temperature. The membranes were then incubated in primary antibody overnight at 4° C. After removing excess primary antibody bound to membranes, blots were incubated with secondary anti body. Then the signal emitted was captured using chemiluminescence substrate.

NIH3T3 cells = assay: In vitro anticancer activity, SRB assay, NIH3T3; format: cell-based
Description: as §3

[4] = test system: Panc-1 pancreatic cancer cell line; assay: In vitro anticancer activity, SRB assay, Panc-1; format: cell-based; details: Homo sapiens, 48 h, NA = Not Active
Description: as §2, §3

[5] = test system: MCF-7 breast cancer cell line; assay: In vitro anticancer activity, SRB assay, MCF-7; format: cell-based; details: Homo sapiens, MCF7, 48 h, NA = Not Active
Description: as §2, §3

[6] = test system: A549 lung adenocarcinoma cell line; assay: In vitro anticancer activity, SRB assay, A549; format: cell-based; details: Homo sapiens, 48 h, NA = Not Active
Description: as §2, §3

[7] = Acute toxicity test with histopathology
Description: Acute toxicity test: Safety tests begin with acute toxicity testing, where the animals are given a single dose of the test compound. The aim of the tests is to determine the range between the dose that causes no adverse effect and the dose that is life-threatening. […] Different doses (50, 25, 10, and 5 mg/kg body weight) of the test compound are given to the animals separately through IP injection. Post injection, the animals were monitored for the first 4 h and observed at every hourly interval for next 24 h. Further, animals were observed everyday for 14 days for any signs of toxic effects and behavior of animals. On day 14 all the surviving animals are sacrificed by a humane method and dissected to investigate signs of toxicity internally. […] If the drug is intended for the treatment of life-threatening diseases, toxicity is less of a concern than in a drug intended for use in healthy individuals.
Histopathological examination: For pathological studies, 5 μm sections of formalin-fixed, paraffin-embedded tissue were prepared and stained with haematoxylin and eosin. After haematoxylin-eosin (HE) staining, the slides were observed and the images were taken using optical microscope (Axioplan-II imaging). All slides were reviewed in a blinded fashion by a single pathologist and assessed for the presence of necrotic lesions (nodules) in the tumors and organs of different groups of mice.

[8] = test system: PC3 prostate cancer cell line; assay: In vitro anticancer activity, SRB assay, PC3; format: cell-based; details: 48 h, NA = Not Active
Description: as §2, §3

## COC(=O)C[C@H]1[C@]2(C)C3=C(C)[C@H](C4=CC5OC4C(C(=O)OC)=C5C(=O)OC)C[C@@H]3O[C@@H]2[C@@H]2OC(=O)[C@]3(C)C=CC(=O)[C@@]1(C)C23 (stereo partly drawn) [A4]
caspase-3
  activity of caspase-3: increased significantly in a dose-dependent manner
[1]
  IC50: 580 nM
[2]; printed 'group I' (control group: 50%)
  animals showing liver metastasis: 10 % of animals
[2]; printed 'group II'
  metastatic invasion in liver, kidney and spleen: no metastatic invasion was found
[2]; treated xenograft animals vs control group
  liver metastasis in treated animals: no liver metastasis
[2]; xenograft mice, intratumoral
  effect on the other tissues of xenograft mice: did not show any effect
[3]
  IC50: 520 nM
caspase-9
  activity of caspase-9: increased significantly in a dose-dependent manner
p27
  expression of p27 protein: reduced
NIH3T3 cells
  cytotoxic activity: no activity was observed
[4]
  IC50: 9.08 µM
[5]
  IC50: 12.5 µM
[6]
  IC50: 4.54 µM
[7]; 25 mg/kg body weight
  organ histopathology: all organs including liver, kidney and spleen appeared normal
[7]; 25 mg/kg, 10 mg/kg and 5 mg/kg
  survival: survived beyond the 24 h of observation
[7]; 50 mg/kg body weight
  kidney histopathology: moderate capsular thickening and fibrosis in the renal capsules
  liver histopathology: minor inflammation in the liver
[7]; all the mice used in the experiment
  adverse gastrointestinal effects: no adverse gastrointestinal effects were observed
[7]; one mouse that received 50 mg/kg
  mortality: died within 24 h
[7]; up to 50 mg/kg
  toxic effects in acute toxicity studies: failed to show any toxic effects
[8]
  IC50: 1400 nM
